From US12084473B2, “β-D-2′-deoxy-2′-α-fluoro-2′-β-C-substituted-2-modified-N6-substituted purine nucleotides for HCV treatment” (Atea Pharmaceuticals, Inc., priority 2015, dated 2024)
Like-named read-outs stand apart in the source and are kept apart here.

Assays:
Huh-7 luc/neo ET cells = assay: Cytotoxicity by XTT staining in replicon cells
Description: (§1) The plates were cultured for 24 hours prior to the addition of compounds. Six serial one half log dilutions of the test articles (high test concentration of 100.0 μM or high test concentration of 1.0 μM) and human interferon-alpha2b (high test 10.0 U/ml) were prepared in cell culture medium and added to the cultured cells in triplicate wells for each dilution. Six wells in the test plates received medium alone as an untreated control. Following 72 hours of culture in the presence of compound, one of the plates was used for the determination of cytotoxicity by staining with XTT and the other for antiviral efficacy by determination of luciferase reporter activity. Cytotoxicity and efficacy data were collected and imported into a customized Excel workbook for determination of the TC50 and EC50 values. […] The y-axis is the percent of virus control and the x-axis is the concentration of drug in μM. […] The y-axis is the percent of virus control and the x-axis is the concentration of drug in M.

HCV wild type replicon = assay: microbe, parasite or virus in culture; format: cell-based; settings: NS5B Mutation None, transient assay, 96-hr
Description: (§2) A transient transfection assay was performed to determine the sensitivity of the […] of HCV to test compounds. Huh-7 cells were electroporated in the presence of RNA transcribed from wild type or S282T HCV replicon plasmids from the T7 promoter. The transfected cells were seeded in to 96-well plates at 7.5×10^3 cells per well in Dulbecco's Modified Eagle's medium. After 24 hr of incubation, medium was removed and replaced with fresh medium containing no or various concentrations of test compounds. Following an additional 96-hr incubation, the anti-HCV activity was measured by luciferase endpoint with Britelite™ Plus luminescence reporter gene kit (Perkin Elmer, Shelton, CT). Duplicate plates were treated and incubated in parallel for assessment of cellular toxicity by staining with the tetrazolium dye XTT.

HCV S282T replicon = assay: microbe, parasite or virus in culture; format: cell-based; settings: NS5B Mutation S282T, transient assay, 96-hr
Description: as §2

[1] = test system: HCV Genotype 4d, NS5B Mutation none; assay: microbe, parasite or virus in culture; format: cell-based; settings: genotype 4d, no NS5B mutation
Description: (§3) Various patient-derived HCV genotypes containing wild-type and resistance-associated variants were used to determine their relative replication sensitivity to test compounds. Replicon resistance test vectors (RTVs) containing the NS5B genomic regions were prepared using viral RNA isolated from plasma of HCV patients. Each NS5B region was amplified by reverse-transcription polymerase chain reaction and cloned into an HCV replicon RTV which was then transferred by electroporation into Huh-7 cells.

[2] = test system: HCV Genotype 4a, NS5B Mutation none; assay: microbe, parasite or virus in culture; format: cell-based; settings: genotype 4a, no NS5B mutation
Description: as §3

[3] = test system: HCV Genotype 1b, NS5B Mutation C316N; assay: microbe, parasite or virus in culture; format: cell-based; settings: genotype 1b, NS5B C316N
Description: as §3

[4] = test system: HCV Genotype 1b, NS5B Mutation none; assay: microbe, parasite or virus in culture; format: cell-based; settings: genotype 1b, no NS5B mutation
Description: as §3

[5] = test system: HCV Genotype 3a-1, NS5B Mutation none; assay: microbe, parasite or virus in culture; format: cell-based; settings: genotype 3a-1, no NS5B mutation
Description: as §3

[6] = test system: HCV Genotype 2a, NS5B Mutation none; assay: microbe, parasite or virus in culture; format: cell-based; settings: genotype 2a, no NS5B mutation
Description: as §3

[7] = test system: HCV Genotype 2b, NS5B Mutation none; assay: microbe, parasite or virus in culture; format: cell-based; settings: genotype 2b, no NS5B mutation
Description: as §3

[8] = test system: HCV Genotype 3a-2, NS5B Mutation none; assay: microbe, parasite or virus in culture; format: cell-based; settings: genotype 3a-2, no NS5B mutation
Description: as §3

[9] = test system: HCV Genotype 1a, NS5B Mutation none; assay: microbe, parasite or virus in culture; format: cell-based; settings: genotype 1a, no NS5B mutation
Description: as §3

[10] = test system: HCV Genotype 1a, NS5B Mutation L159F; assay: microbe, parasite or virus in culture; format: cell-based; settings: genotype 1a, NS5B L159F
Description: as §3

[11] = test system: HCV Genotype 1a, NS5B Mutation L159F and S282T; assay: microbe, parasite or virus in culture; format: cell-based; settings: genotype 1a, NS5B L159F and S282T
Description: as §3

[12] = test system: micro-patterned human hepatocyte co-cultures; assay: Human Hepatocyte Co-Cultures (HepatoPac): cytotoxicity and hepatocyte health; format: cell-based
Description: Cytotoxicity and hepatocyte health were assessed in triplicate by measuring ALT leakage, urea production, albumin secretion and cellular ATP contents in micro-patterned human hepatocyte co-cultures (HepatoPac®, Hepregen Corporation) prepared by seeding cryopreserved human hepatocytes (single donor) and 3T3 J2 mouse fibroblasts in microtiter plates according to procedures established by Hepregen. Culture media was replaced with fresh media containing TA, test article, (0, 1, 10 or 30 μM) every 2 or 3 days through day 16. […] Cellular ATP levels were measured on days 9 and 21. ATP signals in stromal-only control cultures (murine 3T3 fibroblasts) were subtracted from those of human HepatoPac co-cultures to obtain hepatocyte-specific effects. See, Table 4, 5 and 6 below.

[13] = molecular target: HCV genotype 1b luciferase reporter replicon; assay: microbe, parasite or virus in culture; format: cell-based
Description: as §1

[14] = Cytotoxicity by XTT staining in replicon cells; settings: human
Description: as §1

[15] = test system: HCV genotype 1b luciferase reporter replicon; assay: microbe, parasite or virus in culture; format: cell-based; settings: Hepatitis C virus, HuH-7-Luc/Neo-ET, 72 h, read-out: HCV Replicon EC50/EC95: EC50
[16] = Hepatitis C virus; Huh-7 luc/neo ET cells, 72 hours, luciferase; read-out: HCV Replicon EC50/EC95: EC95

With sofosbuvir [reference compound] the TC50 (Huh-7 luc/neo ET cells) was “greater than one hundred”, the IC95 Value (HCV wild type replicon) was 218 nM and the IC50 (HCV wild type replicon; read-out: IC50 Value) was 36.4 nM. For the same compound, the IC95 Value (HCV S282T replicon) was greater than 1000 nM, the IC50 (HCV S282T replicon; read-out: IC50 Value) was 278 nM and the “IC95 Value” [1] was 1019.7 nM. For the same compound, the IC50 ([1]; read-out: IC50 Value) was 93.7 nM, the “IC95 Value” [2] was 681.4 nM and the IC50 ([2]; read-out: IC50 Value) was 74.9 nM. For the same compound, the “IC95 Value” [3] was 472.8 nM, the IC50 ([3]; read-out: IC50 Value) was 73.9 nM and the “Fold Change in IC50 from Sofosbuvir” value [4] was 1.0. For the same compound, the “IC95 Value” [4] was 642.2 nM, the IC50 ([4]; read-out: IC50 Value) was 86 nM and the “IC95 Value” [5] was 689.8 nM. For the same compound, the IC50 ([5]; read-out: IC50 Value) was 126 nM, the “IC95 Value” [6] was 195.1 nM and the IC50 ([6]; read-out: IC50 Value) was 22.5 nM. For the same compound, the “IC95 Value” [7] was 295.3 nM, the IC50 ([7]; read-out: IC50 Value) was 44.8 nM and the “IC95 Value” [8] was 808.1 nM. The IC50 ([8]; read-out: IC50 Value) was 124 nM, the “IC95 Value” [9] was 507.7 nM and the IC50 ([9]; read-out: IC50 Value) was 62.7 nM. For the same compound, the “IC95 Value” [10] was 1067.5 nM, the IC50 ([10]; read-out: IC50 Value) was 115 nM and the “IC95 Value” [11] was 16950.9 nM. For the same compound, the IC50 ([11]; read-out: IC50 Value) was 1620 nM, the IC50 ([12]; Day 9, read-out: Effect on Cellular ATP Concentrations, 50% Inhibitory Concentration (IC50)) was 8600 nM and the IC50 ([12]; Day 21, read-out: Effect on Cellular ATP Concentrations, 50% Inhibitory Concentration (IC50)) was 2300 nM. It also gave an IC50 ([12]; Table 5, Day 2, read-out: Effect on Albumin Secretion, 50% Inhibitory Concentration (IC50)) greater than 30000 nM, an IC50 ([12]; Table 5, Day 5, read-out: Effect on Albumin Secretion, 50% Inhibitory Concentration (IC50)) of 19500 nM and an IC50 ([12]; Table 5, Day 7, read-out: Effect on Albumin Secretion, 50% Inhibitory Concentration (IC50)) of 10900 nM. For the same compound, the IC50 ([12]; Table 5, Day 9, read-out: Effect on Albumin Secretion, 50% Inhibitory Concentration (IC50)) was 9300 nM, the IC50 ([12]; Table 6, Day 2, read-out: Effect on Albumin Secretion, 50% Inhibitory Concentration (IC50)) was greater than 30000 nM and the IC50 ([12]; Table 6, Day 5, read-out: Effect on Albumin Secretion, 50% Inhibitory Concentration (IC50)) was greater than 30000 nM. It also gave an IC50 ([12]; Table 6, Day 7, read-out: Effect on Albumin Secretion, 50% Inhibitory Concentration (IC50)) greater than 30000 nM, an IC50 ([12]; Table 6, Day 9, read-out: Effect on Albumin Secretion, 50% Inhibitory Concentration (IC50)) of 12100 nM and an IC50 ([12]; Table 6, Day 12, read-out: Effect on Albumin Secretion, 50% Inhibitory Concentration (IC50)) of 6800 nM. For the same compound, the IC50 ([12]; Table 6, Day 16, read-out: Effect on Albumin Secretion, 50% Inhibitory Concentration (IC50)) was 2700 nM, the IC50 ([12]; Table 6, Day 21, read-out: Effect on Albumin Secretion, 50% Inhibitory Concentration (IC50)) was 2300 nM and the “cytotoxicity to human co-cultured hepatocytes (in words)” value ([12]; text b588) was “more cytotoxicity than AT-511”. It also gave an EC50 ([13]; read-out: EC50 in a replicon assay) of 53 nM.

For CNc1nc(N)nc2c1ncn2[C@@H]1OC(CO[P@](=O)(N[C@@H](C)C(=O)OC(C)C)Oc2ccccc2)[C@@H](O)[C@@]1(C)F (stereo partly drawn) [Compound 5-1], the CC50 at 72 h [14] was greater than 100000 nM, the EC50 [15] was 55.1 nM and the EC95 [13, 16] was 282 nM. The “Fold increase in activity compared to parent nucleoside” value (“Fold increase … to parent nucleoside” for short) ([13]; Table 7) was greater than 280.

With CC(C)OC(=O)[C@H](C)NP(=O)(OCC1O[C@@H](n2cnc3c(N)nc(N)nc32)[C@](C)(F)[C@@H]1O)Oc1ccccc1 (stereo partly drawn) the CC50 at 72 h [14] was greater than 100000 nM, the EC50 [15] was 2100 nM and the EC95 [13, 16] was 9040 nM. The “Fold increase … to parent nucleoside” value ([13]; Table 7) was 3.

In the case of CNc1nc(N)nc2c1ncn2[C@@H]1OC(COP(=O)(N[C@@H](C)C(=O)OC(C)C)Oc2ccccc2)[C@@H](O)[C@@]1(C)F (mixture of isomers) [Compound 5, isopropyl ((((R,S)-(2R,3R,4R,5R)-5-(2-amino-6-(methylamino)-9H-purin-9-yl)-4-fluoro-3-hydroxy-4-methyltetrahydrofuran-2-yl)methoxy)-phenoxy-phosphoryl)-L-alaninate], the CC50 at 72 h [14] is reported as greater than 100000 nM, the EC50 [15] is reported as 26 nM and the EC95 [13, 16] is reported as 124 nM. The EC50 ([13]; Hepatitis C virus; read-out: EC50 in a replicon assay) was 26 nM, the “Fold increase … to parent nucleoside” value ([13]; Table 7) was greater than 600 and the “fold increase in activity (versus parent nucleoside)” value ([13]; listed as stabilized phosphate prodrug (phosphoramidate) of β-D-2′-deoxy-2′-α-fluoro-2′-β-) was no less than 870. The “fold increase in activity (versus parent nucleoside)” value ([13]; listed as stabilized racemic phosphate prodrug (phosphoramidate) of β-D-2′-deoxy-2′-α-fluo) was no less than 600.

CN(C)c1nc(N)nc2c1ncn2[C@@H]1O[C@H](CO)[C@@H](O)[C@@]1(C)F [Compound 6, (2R,3R,4R,5R)-5-(2-amino-6-(dimethylamino)-9H-purin-9-yl)-4-fluoro-2-(hydroxymethyl)-4-methyltetrahydrofuran-3-ol] showed a CC50 at 72 h [14] greater than 100000 nM, an EC50 [15] of 10700 nM and an EC50 ([13]; Hepatitis C virus, parent nucleosides; read-out: EC50 in a replicon assay) of 10700 nM.

For CC(C)OC(=O)[C@H](C)N[P@@](=O)(OCC1O[C@@H](n2cnc3c(N(C)C4CC4)nc(N)nc32)[C@](C)(F)[C@@H]1O)Oc1ccccc1 (stereo partly drawn) [Compound 28, isopropyl ((((R)-(2R,3R,4R,5R)-5-(2-amino-6-(methylcyclopropanamino)-9H-purin-9-yl)-4-fluoro-3-hydroxy-4-methyltetrahydrofuran-2-yl)methoxy)-phenoxy-phosphoryl)-L-alaninate], the CC50 at 72 h [14] was greater than 100000 nM, the EC50 [15] was 14 nM and the EC95 [13, 16] was 76 nM.

CC(C)OC(=O)[C@H](C)NP(=O)(OCC1O[C@@H](n2cnc3c(N(C)C4CC4)nc(N)nc32)[C@](C)(F)[C@@H]1O)Oc1ccccc1 (stereo partly drawn) [Compound 9, isopropyl ((((R,S)-(2R,3R,4R,5R)-5-(2-amino-6-(N-methyl-cyclopropylamino)-9H-purin-9-yl)-4-fluoro-3-hydroxy-4-methyltetrahydrofuran-2-yl)methoxy)-phenoxy-phosphoryl)-L-alaninate] showed a CC50 at 72 h [14] greater than 100000 nM, an EC50 [15] of 9.1 nM and an EC50 ([13]; Hepatitis C virus, read-out: EC50 in a replicon assay) of 7 nM. The EC95 [13, 16] was 54 nM and the “Fold increase … to parent nucleoside” value ([13]; Table 7) was greater than 600.

Compound C#C[C@@]1(F)[C@H](O)[C@@H](CO)O[C@H]1n1cnc2c(NC)nc(N)nc21 [Compound 42] has a CC50 at 72 h [14] greater than 100000 nM, an EC50 [15] of 4180 nM and an EC95 [13, 16] of 20400 nM.
